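GI50 marks 50% less growth. TGI: total growth inhibition.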
How the values were obtained:
Assay in all cases: NCI anticancer screen, dose series, 384-well format
COLO 205 colon = test system: COLO 205 colon
BT-549 breast = test system: BT-549 breast
SF-539 CNS = test system: SF-539 CNS
SK-OV-3 ovarian = test system: SK-OV-3 ovarian
NCI-H23 lung = test system: NCI-H23 lung
MDA-MB-231 breast = test system: MDA-MB-231 breast
HL-60(TB) leukemia = test system: HL-60(TB) leukemia
SW-620 colon = test system: SW-620 colon
SF-295 CNS = test system: SF-295 CNS
A498 renal = test system: A498 renal
HOP-92 NSCLC = test system: HOP-92 NSCLC
MALME-3M melanoma = test system: MALME-3M melanoma
OVCAR-3 ovarian = test system: OVCAR-3 ovarian
CCRF-CEM leukemia = test system: CCRF-CEM leukemia
RXF 393 renal = test system: RXF 393 renal
MDA-MB-435 melanoma = test system: MDA-MB-435 melanoma
786-0 renal = test system: 786-0 renal
SK-MEL-5 melanoma = test system: SK-MEL-5 melanoma
T-47D breast = test system: T-47D breast
MCF7 breast = test system: MCF7 breast
M14 melanoma = test system: M14 melanoma
U251 glioblastoma = test system: U251 glioblastoma
SK-MEL-28 melanoma = test system: SK-MEL-28 melanoma
OVCAR-8 ovarian = test system: OVCAR-8 ovarian
CAKI-1 renal = test system: CAKI-1 renal
HT29 colon = test system: HT29 colon
OVCAR-4 ovarian = test system: OVCAR-4 ovarian
MOLT-4 leukemia = test system: MOLT-4 leukemia
UACC-62 melanoma = test system: UACC-62 melanoma
SR leukemia = test system: SR leukemia
EKVX NSCLC = test system: EKVX NSCLC
PC-3 prostate = test system: PC-3 prostate
OVCAR-5 ovarian = test system: OVCAR-5 ovarian
MDA-MB-468 breast = test system: MDA-MB-468 breast
A549 NSCLC = test system: A549 NSCLC
NCI-H460 NSCLC = test system: NCI-H460 NSCLC
SF-268 CNS = test system: SF-268 CNS
NCI-H522 lung = test system: NCI-H522 lung
UACC-257 melanoma = test system: UACC-257 melanoma
NCI-H322M lung = test system: NCI-H322M lung
SNB-19 CNS = test system: SNB-19 CNS
KM12 colon = test system: KM12 colon
SNB-75 CNS = test system: SNB-75 CNS
DU-145 prostate = test system: DU-145 prostate
HS 578T breast = test system: HS 578T breast
RPMI-8226 leukemia = test system: RPMI-8226 leukemia
NCI/ADR-RES ovarian = test system: NCI/ADR-RES ovarian
TK-10 renal = test system: TK-10 renal
NCI-H226 lung = test system: NCI-H226 lung
HOP-62 NSCLC = test system: HOP-62 NSCLC
HCT-15 colon = test system: HCT-15 colon
ACHN renal = test system: ACHN renal
SK-MEL-2 melanoma = test system: SK-MEL-2 melanoma
IGROV1 ovarian = test system: IGROV1 ovarian
SN12C renal = test system: SN12C renal

How did the GI50 (COLO 205 colon) turn out when COc1ccc(-c2ccc(/C=C/C(=O)NO)cc2)cc1 was run?
Its GI50 is 3.31 µM.

And the TGI (COLO 205 colon)?
Its TGI is 6.56 µM.

And the GI50 (BT-549 breast)?
The GI50 was 0.624 µM.

And the TGI (BT-549 breast)?
The TGI was 3.51 µM.

What about the GI50 (SF-539 CNS) of the same compound?
The GI50 was 0.525 µM.

What about the TGI (SF-539 CNS) of the same compound?
Its TGI is 2.2 µM.

What about the GI50 (SK-OV-3 ovarian) of the same compound?
Its GI50 is 0.349 µM.

And the TGI (SK-OV-3 ovarian)?
Its TGI is 1.56 µM.

What about the GI50 (NCI-H23 lung) of the same compound?
The GI50 was 0.728 µM.

And the TGI (NCI-H23 lung)?
Its TGI is 2.34 µM.

And the GI50 (MDA-MB-231 breast)?
The GI50 was 0.391 µM.

And the TGI (MDA-MB-231 breast)?
Its TGI is 1.73 µM.

And the GI50 (HL-60(TB) leukemia)?
The GI50 was 0.255 µM.

And the TGI (HL-60(TB) leukemia)?
The TGI was 0.524 µM.

And the GI50 (SW-620 colon)?
The GI50 was 1.82 µM.

And the TGI (SW-620 colon)?
Its TGI is 10.2 µM.

What about the GI50 (SF-295 CNS) of the same compound?
Its GI50 is 2.84 µM.

What about the TGI (SF-295 CNS) of the same compound?
Its TGI is 14.2 µM.

And the GI50 (A498 renal)?
The GI50 was 1.86 µM.

And the TGI (A498 renal)?
The TGI was 11.2 µM.

And the GI50 (HOP-92 NSCLC)?
The GI50 was 0.986 µM.

What about the TGI (HOP-92 NSCLC) of the same compound?
Its TGI is 4.19 µM.

And the GI50 (MALME-3M melanoma)?
Its GI50 is 1.18 µM.

And the TGI (MALME-3M melanoma)?
The TGI was 3.92 µM.

And the GI50 (OVCAR-3 ovarian)?
Its GI50 is 0.237 µM.

What about the TGI (OVCAR-3 ovarian) of the same compound?
Its TGI is 0.531 µM.

And the GI50 (CCRF-CEM leukemia)?
Its GI50 is 0.128 µM.

And the TGI (CCRF-CEM leukemia)?
The TGI was 0.258 µM.

What about the GI50 (RXF 393 renal) of the same compound?
The GI50 was 0.298 µM.

What about the TGI (RXF 393 renal) of the same compound?
Its TGI is 1.13 µM.

And the GI50 (MDA-MB-435 melanoma)?
Its GI50 is 4.26 µM.

And the TGI (MDA-MB-435 melanoma)?
Its TGI is 64.7 µM.

What about the GI50 (786-0 renal) of the same compound?
Its GI50 is 1.14 µM.

And the TGI (786-0 renal)?
Its TGI is 3.65 µM.

What about the GI50 (SK-MEL-5 melanoma) of the same compound?
The GI50 was 0.421 µM.

And the TGI (SK-MEL-5 melanoma)?
Its TGI is 1.58 µM.

And the GI50 (T-47D breast)?
The GI50 was 1.4 µM.

What about the TGI (T-47D breast) of the same compound?
The TGI was 5.26 µM.

And the GI50 (MCF7 breast)?
The GI50 was 1.41 µM.

What about the TGI (MCF7 breast) of the same compound?
The TGI was 4.28 µM.

And the GI50 (M14 melanoma)?
Its GI50 is 1.45 µM.

What about the TGI (M14 melanoma) of the same compound?
Its TGI is 3.28 µM.

What about the GI50 (U251 glioblastoma) of the same compound?
Its GI50 is 1.19 µM.

And the TGI (U251 glioblastoma)?
Its TGI is 2.85 µM.

What about the GI50 (SK-MEL-28 melanoma) of the same compound?
The GI50 was 2.6 µM.

What about the TGI (SK-MEL-28 melanoma) of the same compound?
Its TGI is 7.2 µM.

What about the GI50 (OVCAR-8 ovarian) of the same compound?
Its GI50 is 0.562 µM.

What about the TGI (OVCAR-8 ovarian) of the same compound?
Its TGI is 2.12 µM.

What about the GI50 (CAKI-1 renal) of the same compound?
The GI50 was 1.75 µM.

What about the TGI (CAKI-1 renal) of the same compound?
The TGI was 5.59 µM.

What about the GI50 (HT29 colon) of the same compound?
Its GI50 is 2.72 µM.

What about the TGI (HT29 colon) of the same compound?
Its TGI is 16.3 µM.

What about the GI50 (OVCAR-4 ovarian) of the same compound?
Its GI50 is 0.284 µM.

And the TGI (OVCAR-4 ovarian)?
The TGI was 12.2 µM.

And the GI50 (MOLT-4 leukemia)?
Its GI50 is 0.166 µM.

What about the TGI (MOLT-4 leukemia) of the same compound?
Its TGI is 0.329 µM.

And the GI50 (UACC-62 melanoma)?
Its GI50 is 1.93 µM.

And the TGI (UACC-62 melanoma)?
Its TGI is 4.35 µM.

And the GI50 (SR leukemia)?
The GI50 was 0.195 µM.

And the TGI (SR leukemia)?
Its TGI is 0.368 µM.

What about the GI50 (EKVX NSCLC) of the same compound?
The GI50 was 2.28 µM.

What about the TGI (EKVX NSCLC) of the same compound?
Its TGI is 11.4 µM.

What about the GI50 (PC-3 prostate) of the same compound?
Its GI50 is 0.818 µM.

And the TGI (PC-3 prostate)?
The TGI was 9.74 µM.

What about the GI50 (OVCAR-5 ovarian) of the same compound?
The GI50 was 1.94 µM.

And the TGI (OVCAR-5 ovarian)?
Its TGI is 5.93 µM.

And the GI50 (MDA-MB-468 breast)?
Its GI50 is 0.292 µM.

And the TGI (MDA-MB-468 breast)?
The TGI was 0.578 µM.

What about the GI50 (A549 NSCLC) of the same compound?
The GI50 was 0.431 µM.

And the TGI (A549 NSCLC)?
The TGI was 11.6 µM.

And the GI50 (NCI-H460 NSCLC)?
Its GI50 is 0.626 µM.

What about the TGI (NCI-H460 NSCLC) of the same compound?
Its TGI is 2.5 µM.

And the GI50 (SF-268 CNS)?
Its GI50 is 0.967 µM.

What about the TGI (SF-268 CNS) of the same compound?
Its TGI is 2.87 µM.

And the GI50 (NCI-H522 lung)?
The GI50 was 0.373 µM.

What about the TGI (NCI-H522 lung) of the same compound?
Its TGI is 1.48 µM.

And the GI50 (UACC-257 melanoma)?
The GI50 was 1.38 µM.

And the TGI (UACC-257 melanoma)?
Its TGI is 8.8 µM.

What about the GI50 (NCI-H322M lung) of the same compound?
Its GI50 is 3.1 µM.

And the TGI (NCI-H322M lung)?
Its TGI is 33.3 µM.

And the GI50 (SNB-19 CNS)?
Its GI50 is 2.52 µM.

And the TGI (SNB-19 CNS)?
The TGI was 11.9 µM.

And the GI50 (KM12 colon)?
The GI50 was 1.51 µM.

What about the TGI (KM12 colon) of the same compound?
The TGI was 16 µM.

What about the GI50 (SNB-75 CNS) of the same compound?
Its GI50 is 0.466 µM.

And the TGI (SNB-75 CNS)?
Its TGI is 4.64 µM.

What about the GI50 (DU-145 prostate) of the same compound?
The GI50 was 1.3 µM.

What about the TGI (DU-145 prostate) of the same compound?
The TGI was 3.54 µM.

And the GI50 (HS 578T breast)?
The GI50 was 2.85 µM.

What about the TGI (HS 578T breast) of the same compound?
The TGI was 9.63 µM.

And the GI50 (RPMI-8226 leukemia)?
The GI50 was 0.262 µM.

What about the TGI (RPMI-8226 leukemia) of the same compound?
The TGI was 0.548 µM.

What about the GI50 (NCI/ADR-RES ovarian) of the same compound?
The GI50 was 0.527 µM.

And the TGI (NCI/ADR-RES ovarian)?
Its TGI is 1.62 µM.

And the GI50 (TK-10 renal)?
The GI50 was 1.82 µM.

And the TGI (TK-10 renal)?
The TGI was 7.23 µM.

And the GI50 (NCI-H226 lung)?
The GI50 was 0.457 µM.

What about the TGI (NCI-H226 lung) of the same compound?
The TGI was 2.41 µM.

What about the GI50 (HOP-62 NSCLC) of the same compound?
Its GI50 is 0.76 µM.

What about the TGI (HOP-62 NSCLC) of the same compound?
The TGI was 2.58 µM.

And the GI50 (HCT-15 colon)?
The GI50 was 0.332 µM.

What about the TGI (HCT-15 colon) of the same compound?
Its TGI is 2.73 µM.

What about the GI50 (ACHN renal) of the same compound?
The GI50 was 2.1 µM.

What about the TGI (ACHN renal) of the same compound?
Its TGI is 4.23 µM.

What about the GI50 (SK-MEL-2 melanoma) of the same compound?
Its GI50 is 0.472 µM.

And the TGI (SK-MEL-2 melanoma)?
Its TGI is 1.14 µM.

And the GI50 (IGROV1 ovarian)?
The GI50 was 1.68 µM.

And the TGI (IGROV1 ovarian)?
Its TGI is 5.02 µM.

And the GI50 (SN12C renal)?
The GI50 was 1.29 µM.

And the TGI (SN12C renal)?
Its TGI is 3.81 µM.

Reference: PubChem BioAssay (NCI)
